Source: the NIST ThermoML archive (doi:10.1016/j.jct.2016.11.002)
“And” between values parts separate entries of the source, which are not always exact repeats. Equal values may be shown once.

Tests used:
[1] = 100 kPa, Liquid; for speed of sound: Frequency=3 MHz, Single path-length method; for mass density: Vibrating tube method
[2] = refractive index (Na D-line) (dimensionless); conditions: 100 kPa, Liquid, Standard Abbe refractometry
[3] = refractive index (Na D-line) (dimensionless); xn = mol fraction of the nth substance listed; conditions: 100 kPa, Liquid, Standard Abbe refractometry, x1 = 1
[4] = xn = mol fraction of the nth substance listed; conditions: 100 kPa, Liquid, x1 = 1; for speed of sound: Frequency=3 MHz, Single path-length method; for mass density: Vibrating tube method

CCOCCO [2-ethoxyethan-1-ol]
Conditions | mass density, [1] [kg/m3] | refractive index, [2] | speed of sound, [1]
298.15 K | 925.54 | 1.4055 | 1302.8 m/s
303.15 K | 920.99 | 1.4042 | 1285 m/s
308.15 K | 916.41 | 1.4028 | 1267.3 m/s
313.15 K | 911.8 | 1.4016 | 1249.6 m/s
318.15 K | 907.15 | 1.4001 | 1232 m/s and 1231.5 m/s
323.15 K | 902.46 | 1.3988 | 1214.3 m/s

CCOC(=O)OCC [diethyl carbonate] + CCOCCO
Conditions | mass density, [4] [kg/m3] | refractive index, [3] | speed of sound, [4] [m/s]
298.15 K | 969.1 | 1.3825 | 1177.5
303.15 K | 963.47 | 1.3802 | 1156.9
308.15 K | 957.81 | 1.3779 | 1136.6
313.15 K | 952.13 | 1.3756 | 1116.5
318.15 K | 946.43 | 1.3733 | 1096.5
323.15 K | 940.69 | 1.371 | 1076.7

CCOC(=O)OCC [diethyl carbonate] + CCCOCCO
Conditions | mass density, [4] [kg/m3] | refractive index, [3] | speed of sound, [4] [m/s]
298.15 K | 969.1 | 1.3825 | 1177.5
303.15 K | 963.47 | 1.3802 | 1156.9
308.15 K | 957.81 | 1.3779 | 1136.6
313.15 K | 952.13 | 1.3756 | 1116.5
318.15 K | 946.43 | 1.3733 | 1096.5
323.15 K | 940.69 | 1.371 | 1076.7

CCOC(=O)OCC [diethyl carbonate] + COCCO
Conditions | mass density, [4] [kg/m3] | refractive index, [3] | speed of sound, [4] [m/s]
298.15 K | 969.1 | 1.3825 | 1177.5
303.15 K | 963.47 | 1.3802 | 1156.9
308.15 K | 957.81 | 1.3779 | 1136.6
313.15 K | 952.13 | 1.3756 | 1116.5
318.15 K | 946.43 | 1.3733 | 1096.5
323.15 K | 940.69 | 1.371 | 1076.7

COCCO [2-methoxyethan-1-ol]
Conditions | mass density, [1] [kg/m3] | refractive index, [2] | speed of sound, [1] [m/s]
298.15 K | 960.32 | 1.4001 | 1342.1
303.15 K | 955.71 | 1.3981 | 1324.7
308.15 K | 951.08 | 1.3961 | 1307.4
313.15 K | 946.42 | 1.3943 | 1290
318.15 K | 941.72 | 1.3922 | 1272.7
323.15 K | 936.89 | 1.3902 | 1255.4
